# Laboratory results taken from patent publication US10344019B2 (priority 2010, dated 2019).
# pEC50: −log10 of the molar value. Like-named read-outs stand apart in the source and are kept apart here.
# Experiments:
# Format in all cases: cell-based
# [1] = test system: HCV 1a RLuc cells (dicistronic genotype 1a H77 replicon, RLuc reporter); assay: microbe, parasite or virus in culture; details: Hepatitis C virus, read-out: 1a
# Outline: (§1)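 Renilla luciferase HCV replicon cells: dicistronic 1b Con1, 1a H77 or 2a JFH-1 replicons, or a JFH-1 chimera carrying J6 NS5A (M31 present). Compound in DMSO serial dilutions, 72 h incubation, then lysis and luciferase read. EC50 by non-linear regression.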
# [2] = test system: HCV 4a Rluc cells (NS5A chimeric genotype 1b Con1 replicon with genotype 4a NS5A gene); assay: microbe, parasite or virus in culture; details: Hepatitis C virus, read-out: 4a
# Outline: (§2)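 Replicon cells stably carrying the listed RLuc-encoding dicistronic replicons were seeded and treated with DMSO serial dilutions of compound (10 mM stocks) diluted into culture medium. After 72 h, cells were lysed and Renilla luciferase activity measured. EC50 was derived by non-linear regression.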
# [3] = test system: HCV 3a RLuc cells (NS5A chimeric genotype 1b Con1 replicon with consensus genotype 3a NS5A gene); assay: microbe, parasite or virus in culture; details: Hepatitis C virus
# Outline: as §2
# [4] = test system: HCV 1b RLuc cells (dicistronic genotype 1b Con1 replicon, RLuc reporter); assay: microbe, parasite or virus in culture; details: Hepatitis C virus, read-out: 1b (nM)
# Outline: as §1
# [5] = test system: HCV 2a JFH-1 Rluc cells (dicistronic genotype 2a JFH-1 replicon, RLuc reporter); assay: microbe, parasite or virus in culture; details: Hepatitis C virus, read-out: 2a JFH
# Outline: as §1
# [6] = test system: Q30R in genotype 1a NS5A, 1a Rluc replicon transfected into Huh-7 cured-51 cells; assay: HCV replicon assay, resistance mutant 1a Q30R; details: Hepatitis C virus, Huh-7, read-out: 1a Q30R
# Procedure: Evaluation of cell-based anti-HCV activity: Antiviral potency (EC50) was determined using a Renilla luciferase (RLuc)-based HCV replicon reporter assay. To perform the assay for genotype 1 and 2a JFH-1, HCV 1b RLuc cells (harboring a dicistronic genotype 1b Con1 replicon that encodes a RLuc reporter), or HCV 1a RLuc cells (harboring a dicistronic genotype 1a H77 replicon that encodes a RLuc reporter), or HCV 2a JFH-1 Rluc cells (harboring a dicistronic genotype 2a JFH-1 replicon that encodes a RLuc reporter) were dispensed into 384-well plates. To perform the assay for genotype 2a (with M31 present) or 2b, HCV 2a Rluc or 2b Rluc cells (both with M31 present) harboring a dicistronic NS5A chimeric genotype 2a JFH-1 replicon that encodes a RLuc reporter and either genotype 2a J6 strain NS5A gene or genotype 2b MD2b-1 NS5A gene (based on Los Alamos HCV database isolates, both with M31 present) respectively, were dispensed into 384-well plates. To perform the assay for genotype 3 and 4, HCV 3a RLuc or 4a Rluc cells harboring a dicistronic NS5A chimeric genotype 1b Con1 replicon that encodes a RLuc reporter and either a consensus genotype 3a NS5A gene or genotype 4a NS5A gene (based on Los Alamos HCV database isolates) respectively, were dispensed into 384-well plates. Compounds were re-suspended in DMSO at a concentration of 10 mM and serially diluted in DMSO either manually or using an automated pipeting instrument. Serially diluted compounds were mixed with cell culture media and added to the seeded cells. […] 72 hours later, cells were lysed and Renilla luciferase activity quantified as recommended by the manufacturer (Promega-Madison, Wis.). Non-linear regression was performed to calculate EC50 values.
# To determine the antiviral potency (EC50) against resistance mutants, resistance mutations, including M28T, Q30R, Q30H, L31M, and Y93C in genotype 1a NS5A and Y93H in genotype 1b NS5A, were introduced individually into either 1a Rluc or 1b Rluc replicons described above by site directed mutagenesis. Replicon RNA of each resistant mutant was transfected into Huh-7 cured-51 cells and antiviral potency was determined on these transfected cells as described above.
# [7] = test system: HCV 2a Rluc cells (NS5A chimeric genotype 2a JFH-1 replicon with genotype 2a J6 strain NS5A gene, M31 present); assay: HCV replicon reporter assay, genotype 2a J6 (M31 present); details: Hepatitis C virus, read-out: 2a J6
# Outline: as §1
# [8] = test system: HCV 2b Rluc cells (NS5A chimeric genotype 2a JFH-1 replicon with genotype 2b MD2b-1 NS5A gene, M31 present); assay: microbe, parasite or virus in culture; details: Hepatitis C virus, read-out: 2b
# Outline: as §2
# [9] = read-out: 3a, genotype 3a replicon
# [10] = genotype 2a JFH-1 RLuc replicon
# [11] = read-out: 3a, genotype 3a NS5A chimeric replicon
# [12] = 72 h, Table 1, genotype 1a H77 replicon, 72 hours
# [13] = read-out: 3a, Table 1, genotype 3a NS5A chimeric replicon
# [14] = 72 h, Table 1, genotype 2a JFH-1 replicon, 72 hours
Compound,pEC50 ([1]; genotype 1a replicon),pEC50 [2],"pEC50 [3, 9]",EC50 [4],pEC50 ([5]; genotype 2a JFH-1 replicon),pEC50 [6],pEC50 [7],pEC50 ([1]; genotype 1a H77 RLuc replicon),"pEC50 [5, 10]",pEC50 [8],"pEC50 [3, 11]","pEC50 [1, 12]","pEC50 [3, 13]",EC50 ([4]; 72 h),"pEC50 [5, 14]"
COC(=O)N[C@H](C(=O)N1CCC[C@H]1c1nc(Cl)c(-c2cc3c4c(c2)OCc2cc(-c5[nH]c([C@@H]6CCCN6C(=O)[C@@H](NC(=O)OC)C(C)C)nc5Cl)cc(c2-4)OC3)[nH]1)C(C)C [Example 384],9.00 to 12.00,9.00 to 12.00,9.00 to 12.00,0.013 nM,9.00 to 12.00,7.36 to 9.00,7.36 to 9.00,,,,,,,,
COC[C@H]1C[C@@H](c2ncc(-c3ccc4c(c3)COc3cc5c(ccc6nc([C@@H]7CC[C@H](C)N7C(=O)[C@@H](NC(=O)OC)C(C)C)[nH]c65)cc3-4)[nH]2)N(C(=O)[C@@H](NC(=O)OC)C(C)C)C1 [Example 600],,,,0.007 nM,,9.00 to 12.00,9.00 to 12.00,9.00 to 12.00,9.00 to 12.00,9.00 to 12.00,,,,,
COC[C@H]1C[C@@H](c2nc3ccc4cc(-c5ccc6c(ccc7nc([C@@H]8CCCN8C(=O)[C@@H](NC(=O)OC)C(C)C)[nH]c76)c5)ccc4c3[nH]2)N(C(=O)[C@H](N)c2ccccc2)C1 [Example 598],,,,0.022 nM,,9.00 to 12.00,9.00 to 12.00,9.00 to 12.00,9.00 to 12.00,9.00 to 12.00,,,,,
COC[C@H]1C[C@@H](c2ncc(-c3ccc4c(c3)COc3cc5c(cc3-4)CCc3nc([C@@H]4CC[C@H](C)N4C(=O)[C@@H](NC(=O)OC)C(C)C)[nH]c3-5)[nH]2)N(C(=O)[C@H](NC(=O)OC)c2ccccc2)C1 [Example 608],,,,0.017 nM,,9.00 to 12.00,9.00 to 12.00,9.00 to 12.00,9.00 to 12.00,9.00 to 12.00,,,,,
CC[C@H](C)[C@H](NC(=O)OC)C(=O)N1CCC[C@H]1c1nc2ccc3cc(-c4ccc5c(ccc6nc([C@@H]7C[C@H](COC)CN7C(=O)[C@H](NC(=O)C7CC7)c7ccccc7)[nH]c65)c4)ccc3c2[nH]1 [Example 511],,9.00 to 12.00,,0.019 nM,,,9.00 to 12.00,9.00 to 12.00,9.00 to 12.00,9.00 to 12.00,9.00 to 12.00,,,,
COC[C@H]1C[C@@H](c2ncc(-c3ccc(-c4ccc(-c5cnc([C@@H]6C[C@H](SC)CN6C(=O)[C@@H](NC(=O)OC)C(C)C)[nH]5)cc4)cc3)[nH]2)N(C(=O)[C@H](NC(=O)C2CC2)c2ccccc2)C1 [Example 570],,9.00 to 12.00,,0.033 nM,,,9.00 to 12.00,9.00 to 12.00,9.00 to 12.00,9.00 to 12.00,9.00 to 12.00,,,,
COC[C@H]1C[C@@H](c2ncc(-c3cc4c5c(c3)OCc3cc(-c6cnc([C@@H]7C[C@H](COC)CN7C(=O)[C@@H](NC(=O)OC)C(C)C)[nH]6)cc(c3-5)OC4)[nH]2)N(C(=O)[C@@H](NC(=O)OC)C(C)C)C1 [Example 513],,9.00 to 12.00,,0.068 nM,,,7.36 to 9.00,9.00 to 12.00,9.00 to 12.00,7.36 to 9.00,9.00 to 12.00,,,,
CC[C@H](NC(=O)OC)C(=O)N1CCC[C@H]1c1ncc(-c2ccc3c4c(ccc3c2)-c2ccc(-c3cnc([C@@H]5CCCN5C(=O)[C@H](NC(=O)OC)c5ccccc5)[nH]3)cc2CO4)[nH]1 [Example 12],,9.00 to 12.00,,,,,< 7.36,,,< 7.36,,9.00 to 12.00,9.00 to 12.00,0.008 nM,9.00 to 12.00
COC[C@H]1C[C@@H](c2nc3ccc4cc(-c5ccc(-c6cnc([C@@H]7CCCN7C(=O)[C@H](NC(=O)OC)c7ccccc7)[nH]6)cc5OCC(F)(F)F)ccc4c3[nH]2)N(C(=O)[C@@H](NC(=O)OC)C(C)C)C1 [Example 474],9.00 to 12.00,9.00 to 12.00,9.00 to 12.00,0.025 nM,9.00 to 12.00,,7.36 to 9.00,,,7.36 to 9.00,,,,,
O=C(N[C@@H](C(=O)N1CCC[C@H]1c1ncc(-c2cc3c4c(c2)OCc2cc(-c5cnc([C@@H]6CCCN6C(=O)[C@H](NC(=O)c6cncnc6)c6ccccc6)[nH]5)cc(c2-4)OC3)[nH]1)c1ccccc1)c1cncnc1 [Example 492],,9.00 to 12.00,,0.898 nM,,,< 7.36,7.36 to 9.00,9.00 to 12.00,7.36 to 9.00,9.00 to 12.00,,,,
COC(=O)N[C@H](C(=O)N1CCC[C@H]1c1ncc(-c2cc3c4c(c2)OCc2cc(-c5cnc([C@@H]6CCCN6C(=O)[C@@H](NC(=O)OC)C(C)C)[nH]5)cc(c2-4)OC3)[nH]1)C(C)C [Example 9],,9.00 to 12.00,,,,,< 7.36,,,7.36 to 9.00,,9.00 to 12.00,9.00 to 12.00,0.022 nM,9.00 to 12.00
COC(=O)N[C@@H](C(=O)N1C[C@@H](C)C[C@H]1c1ncc(-c2cc3c4c(c2)OCc2cc(-c5cnc([C@@H]6C[C@H](C)CN6C(=O)[C@H](NC(=O)OC)c6ccccc6)[nH]5)cc(c2-4)OC3)[nH]1)c1ccccc1 [Example 505],,9.00 to 12.00,,0.019 nM,,,9.00 to 12.00,9.00 to 12.00,9.00 to 12.00,9.00 to 12.00,9.00 to 12.00,,,,
COC(=O)N[C@H](C(=O)N1CCCC1c1ncc(-c2ccc3c(c2)COc2cc4c(ccc5nc([C@@H]6C[C@@H]7CCC[C@@H]7N6C(=O)[C@@H](NC(=O)OC)C(C)C)[nH]c54)cc2-3)[nH]1)C(C)C (some centres unmarked) [Example 576],,9.00 to 12.00,,0.014 nM,,,7.36 to 9.00,9.00 to 12.00,9.00 to 12.00,9.00 to 12.00,9.00 to 12.00,,,,
COC(=O)N[C@H](C(=O)N1CC2(CC2)C[C@H]1c1nc2ccc3cc(-c4ccc(-c5cnc([C@@H]6[C@H]7CC[C@H](C7)N6C(=O)[C@@H](NC(=O)OC)C(C)C)[nH]5)cc4)ccc3c2[nH]1)C(C)C [Example 387],9.00 to 12.00,9.00 to 12.00,9.00 to 12.00,0.009 nM,9.00 to 12.00,,< 7.36,,,< 7.36,,,,,
CC(C)(C)C(=O)N[C@@H](C(=O)N1CCC[C@H]1c1ncc(-c2cc3c4c(c2)OCc2cc(-c5cnc([C@@H]6CCCN6C(=O)[C@H](NC(=O)C(C)(C)C)c6ccccc6)[nH]5)cc(c2-4)OC3)[nH]1)c1ccccc1 [Example 466],9.00 to 12.00,9.00 to 12.00,9.00 to 12.00,0.042 nM,9.00 to 12.00,,7.36 to 9.00,,,7.36 to 9.00,,,,,
CC#Cc1cc(-c2cnc([C@@H]3CCCN3C(=O)[C@@H](NC(=O)OC)C(C)C)[nH]2)ccc1-c1ccc2c(ccc3nc([C@@H]4C[C@H](COC)CN4C(=O)[C@H](NC(=O)OC)c4ccccc4)[nH]c32)c1 [Example 549],,9.00 to 12.00,,0.007 nM,,,9.00 to 12.00,9.00 to 12.00,9.00 to 12.00,9.00 to 12.00,9.00 to 12.00,,,,
COC(=O)N[C@H](C(=O)N1[C@@H]2CC[C@@H](C2)[C@H]1c1nc2ccc3cc(-c4ccc5c(ccc6nc([C@@H]7CCCN7C(=O)[C@H](NC(=O)N7CCOCC7)c7ccccc7)[nH]c65)c4)ccc3c2[nH]1)C(C)C [Example 358],9.00 to 12.00,9.00 to 12.00,9.00 to 12.00,0.057 nM,9.00 to 12.00,,9.00 to 12.00,,,9.00 to 12.00,,,,,
